Laboratory results reported in patent US20220323494A1, “Novel Control Switch” (GlaxoSmithKline Intellectual Property Development Limited, priority 2018, published 2022).

B1: Construct 14: conventional single chain CAR (SEQ ID NO: 52) that uses components from CONSTRUCT 10 (protein)
chain: MALPVTALLLPLALLLHAARPQVQLVQSGAEVKKPGSSVKVSCKGSGYTFTNYWMHWVRQAPGQGLEWIGATYRGHSDTYYNQKFKGRATLTADTSTSTAYMELSSLRSEDTAVYYCTRGAIYDGYDVLDNWGQGTLVTVSSGGGGSGGGGSGGGGSGGGGSDIQMTQSPSSLSASVGDRVTITCSASQDISNYLNWYQQKPGKAPKLLIYYTSNLHSGVPSRFSGSGSGTDFTLTISSLQPEDFATYYCQQYRKLPWTFGQGTKLEIKRFVPVFLPAKPTTTPAPRPPTPAPTIASQPLSLRPEACRPAAGGAVHTRGLDFACDIYIWAPLAGTCGVLLLSLVITLYCNHRNKRGRKKLLYIFKQPFMRPVQTTQEEDGCSCRFPEEEEGGCELRVKFSRSADAPAYQQGQNQLYNELNLGRREEYDVLDKRRGRDPEMGGKPRRKNPQEGLYNELQKDKMAEAYSEIGMKGERRRGKGHDGLYQGLSTATKDTYDALHMQALPPR
modifications: Construct 14 amino acid sequence

Assays:
[1] = system: ARH-77-10B5 cells; experiment: xCelligence cytotoxicity assay; assay type: cell-based; settings: T-cells transduced with Construct 10; 10 μM BI224436
Protocol: Transduction of primary T-cells: Method described in Example 5
xCelligence cytotoxicity assay ARH-77-10B5 cells were as described in Example 1. BI224436 compound at a stock concentration of 100 mM in 100% DMSO was diluted in Jurkat media to achieve a stock concentration of 100 μM. xCelligence E-plates (ACEA, 06472460001) were coated with anti-CD40 tethering agent by following manufacturer's instructions for B-cell Killing (anti-CD40) Assay kit (ACEA, 8100004). Plates were inserted into the xCelligence station (ACEA) (37° C., 5% CO2) and allowed to equilibrate to 37° C. for 1 hour prior to taking background measurement. ARH-77-10B5 cells or Jurkat media were added to the plates (1×10^4 cells per well) and cultured for 20 h. Each T-cell population was incubated at a final concentration of 10 μM or 0 μM BI224436 in Jurkat media for 1 hour at 37° C. with 5% CO2. T-cells were added to the plates (1×10^4 cells per well, 1:1 effector:target ratio) and incubated in the xCelligence station for 24 hours. Data analysis was carried out using xCELLigence Immunotherapy Software (ACEA). The cell index for samples was normalized to the point of T-cell addition, then the normalized cell index for T-cells was divided by the normalized cell index of target cells alone to give the % viable cells at a given timepoint.

[2] = system: primary T-cells transduced with the HIV Integrase LEDGF/p75 OFF-switch CAR; experiment: Cytokine release with titration of BI224436, primary T-cells transduced with Construct 13 (Example 6); assay type: cell-based, human
Protocol: Lentiviral vector production and transduction of primary T-cells: Method for lentiviral production is described in Example 4 and method for primary T-cell transduction is described in Example 5.
Cytokine release: ARH-77-10B5 cells were cultured as described in Example 1. BI224436 compound at a stock concentration of 100 mM in 100% DMSO was diluted in Jurkat media to achieve a stock concentration of 100 μM. Each T-cell population was incubated at a final concentration of 10 μM, 3.3 μM, 1.1 μM, 0.37 μM, 0.12 μM, 0.04 μM, 0.013 μM, 0.004 μM, 0.001 μM or 0 μM (media alone) BI224436 in Jurkat media for 1 hour at 37° C. with 5% CO2. T-cells were then co-cultured (5×10^4 cells per well, 1:1 effector:target ratio) with ARH-77-10B5 cells (BCMA positive cells) for 24 hours in Jurkat media at 37° C. with 5% CO2. Cells were pelleted (1200 rpm, 5 min) and supernatants were collected. Supernatants were analysed for cytokine levels using MSD V-plex Proinflammatory Panel 1 Human Kit (MSD, K15049D-2) and MSD Sector Imager (MSD).

[3] = system: primary T-cells transduced with the HIV Integrase LEDGF/p75 OFF-CAR; experiment: Cytokine release by primary T-cells transduced with OFF-switch CAR (Example 5); assay type: cell-based, human; settings: T-cells transduced with Construct 10 and 11; 10 μM, ARH-77-10B5, 24 hour
Protocol: Primary T-cell transduction and cytokine release: Peripheral blood mononuclear cells (PBMCs) from the fresh blood of two healthy human donors were isolated by density gradient centrifugation in Accuspin tubes (Sigma) containing 15 mL of Histopaque-1077 (Sigma) and following manufacturer's instructions. Cells were resuspended at 1×10^6 cells/mL in TEXMacs media (Miltenyi Biotec) containing 100 units/mL of IL-2 (Sigma) and TransAct beads (Miltenyi Biotec) and incubated for 48 hours at 37° C. with 5% CO2.
T-cells from the two donors were transduced with the lentiviral vectors encoding for CONSTRUCT 10 and CONSTRUCT 11. Transduction reactions were prepared to achieve an MOI of 5. T-cells were cultured in TEXMacs media (Miltentyi Biotec) with 100 units/mL of IL-2, fresh media was added every 3 days. ARH-77-10B5 cells were cultured as described in Example 1. BI224436 compound at a stock concentration of 100 mM in 100% DMSO was diluted in Jurkat media to achieve a stock concentration of 100 μM. Each T-cell population was incubated at a final concentration of 10 μM or 0 μM (media alone) BI224436 in Jurkat media for 1 hour at 37° C. with 5% CO2. […] Supernatants were analysed for cytokine levels using MSD V-plex Proinflammatory Panel 1 Human Kit (MSD, K15049D-2) and MSD Sector Imager (MSD).

[4] = Plasma concentration of BI224436 in human subjects (clinical trial NCT01276990); assay type: in vivo; settings: plasma 24 hours after 200 mg oral doses; IC50 is lower
[5] = system: NFAT promoter in Jurkat cells; experiment: NFAT-luciferase assay in Jurkat cells transfected with CAR constructs, co-cultured with ARH-77-10B5 cells; assay type: cell-based; settings: 3 μM BI224436, 48 hours
Protocol: NFAT-luc2 Jurkat cells (Promega) were cultured in Jurkat media: RPMI medium 1640 (1×) without L-glutamine with phenol red (Gibco), 10% (v/v) Fetal Bovine Serum (FBS) Heat-Inactivated (Gibco), 1% (v/v) Minimum essential medium non-essential amino acids (MEM NEAA) (ThermoFisher), 1% (v/v) Sodium Pyruvate (Sigma), 1% (v/v) L-Glutamine (Gibco). ARH-77-10B5 cells were cultured in Jurkat media plus 1 mg/mL G418 (Thermo, 10131035). Cells were incubated at 37° C. with 5% CO2 for 48 hours. 20 μg of plasmid DNA from each construct was mixed with 8×10^6 NFAT-luc2 Jurkat cells and cells were transfected using the 4D-Nucleofector (Lonza) with cell Line SE Nucleofector kit (Lonza) by following manufacturer instructions with program CL-120. BI224436 compound (Chemexpress HY-18595) at a stock concentration of 100 mM in 100% DMSO (Sigma, D2650) was diluted in Jurkat media to achieve a stock concentration of 100 μM. Using the 100 μM BI224436 stock in Jurkat media, NFAT-luc2 Jurkat cells were incubated at a final compound concentration of 3 μM for 48 hours at 37° C. with 5% CO2. NFAT-luc2 Jurkat cells were then co-cultured (1×10^5 cells per well, 1:1 effector:target ratio) with ARH-77-10B5 cells (BCMA positive cells) for 6.5 hours. NFAT-luciferase luminescence was measured by using the Bio-Glo Luciferase Assay System (Promega G7940) (following manufacturer's instructions) and an EnSpire Multimode Plate Reader (Perkin Elmer).

[6] = system: K562 BCMA cells; experiment: Flow cytometry cytotoxicity assay, BCMA-positive target cells; assay type: cell-based; settings: for Effect of BI224436 on cytotoxicity: 10 μM BI224436
Protocol: (§1) Isolation and transduction of CD4+ and CD8+ T-cells: Peripheral blood mononuclear cells (PBMCs) from the fresh blood of one healthy human donor was isolated by density gradient centrifugation in Accuspin tubes (Sigma) containing 15 mL of Histopaque-1077 (Sigma) and following manufacturer's instructions. CD4+ and CD8+ T cells were isolated using CD4 and CD8 microbeads (Miltenyi Biotec) and the AutoMACS Pro-separator (Miltenyi Biotec). Cells were resuspended at 1×10^6 cells/mL in TEXMacs media (Miltenyi Biotec) containing 100 units/mL of IL-7 (Sigma), 100 units/mL of IL-15 (Sigma) and TransAct beads (Miltenyi Biotec) and incubated for 48 hours at 37° C. with 5% CO2.
T-cells were transduced with lentiviral vectors encoding for CONSTRUCT 14 or CONSTRUCT 10. Transduced T-cells and untransduced (UT) T-cells were cultured in TEXMacs media (Miltenyi Biotec) with 100 units/mL of IL-7 (Sigma) and IL-15 (Sigma), and fresh media was added every 3 days. […] 1×10^5 of each T-cell population was stained with AlexaFluor 647 conjugated BCMA-Fc (generated in-house) to label theanti-BCMA scFv on the CARs. Measurements were made using a Cytoflex S (Beckman Coulter) and data analysed using FlowJo (FlowJo).
K562 BCMA cells (BCMA positive) were cultured in Jurkat media plus 0.8 mg/mL G418 (Gibco) and K562 cells (BCMA negative) were cultured in Jurkat media. Both cell lines were cultured at 37° C. with 5% CO2. BI224436 compound at a stock concentration of 100 mM in 100% DMSO (Sigma) was diluted in Jurkat media to achieve a stock concentration of 100 μM. K562 cells were stained with Cell Trace Far Red (0.5 μM, ThermoFisher) and K562 BCMA cells were stained with Cell Trace Violet (2.5 μM, ThermoFisher). […] 50 μL of each well was analysed on a Cytoflex S (Beckman Coulter) and data was analysed using FlowJo (FlowJo). The percentage of surviving K562 and K562 BCMA cells was calculated by dividing the number of K562 and K562 BCMA cells in each condition by the number of K562 and K562 BCMA cells found following co-culture with UT T-cells in 0 μM BI224436.

[7] = system: K562 cells (BCMA negative); experiment: Flow cytometry cytotoxicity assay, BCMA-negative target cells; assay type: cell-based; settings: transduced primary T-cells, K562 WT, 1:1 or 4:1 effector:target, 48 hours
Protocol: as §1
T-cells were transduced with lentiviral vectors encoding for CONSTRUCT 14 or CONSTRUCT 10. […] Measurements were made using a Cytoflex S (Beckman Coulter) and data analysed using FlowJo (FlowJo).
K562 BCMA cells (BCMA positive) were cultured in Jurkat media plus 0.8 mg/mL G418 (Gibco) and K562 cells (BCMA negative) were cultured in Jurkat media. […] 50 μL of each well was analysed on a Cytoflex S (Beckman Coulter) and data was analysed using FlowJo (FlowJo). The percentage of surviving K562 and K562 BCMA cells was calculated by dividing the number of K562 and K562 BCMA cells in each condition by the number of K562 and K562 BCMA cells found following co-culture with UT T-cells in 0 μM BI224436.

Molecule | Effect of BI224436 on cytotoxic response [1] | IC50 ([2]; Homo sapiens, T-cell, primary T-cells transduced with Construct 13, stimulated with ARH-77-10B5, 24 hours, read-out: IC50 concentration for cytokine release (TNF-alpha, IL-2, IFN-gamma)) [nM] | Effect of BI224436 concentration on level of TNF-alpha, IL-2 and IFN-gamma release ([2]; primary T-cells transduced with Construct 13, 0.001-10 μM titration) | Effect of compound on cytokine release [3] | IC50 concentration relative to plasma concentrations in human subjects [4] [fold] | Effect of BI224436 on NFAT activation ([5]; Jurkat cells transfected with Construct 6) | Effect of BI224436 on NFAT activation ([5]; Jurkat cells transfected with Construct 7) | Effect of BI224436 on NFAT activation ([5]; Jurkat cells transfected with Constructs 1 to 4) | Effect of BI224436 on cytotoxicity ([6]; T-cells transduced with OFF-switch CAR (Construct 10)) | Effect of BI224436 on cytotoxicity ([6]; T-cells transduced with conventional CAR (Construct 14)) | Killing of BCMA-negative cells [7] | Killing of BCMA-positive cells ([6]; transduced primary T-cells, K562 BCMA, 1:1 or 4:1 effector:target, 48 hours)
Cc1nc2ccccc2c(-c2ccc3c4c(ccnc24)CCO3)c1[C@H](OC(C)(C)C)C(=O)O [BI224436, 3-Quinolineacetic acid, 4-(2,3-dihydropyrano[4,3,2-de]quinolin-7-yl)-α-(1,1-dimethylethoxy)-2-methyl-,(αS,4R)-] | reduced | 100 | tunes the level | attenuated | 10 | preserved | preserved | does not reduce the level of activation | effectively attenuates | does not affect | – | –
B1 | – | – | – | – | – | – | – | – | – | – | not BCMA-negative cells | kill BCMA-positive cells
